Measurements: ChEMBL document CHEMBL1150453, “Novel catalytic activity of immobilized spores under reduced water activity” (1997)

Legend:
Assay type in all cases: functional
[1] = test system: Aspergillus ochraceus; assay: Compound was tested for transformation of progesterone by Dehydrated immobilized spores of Aspergillus orchraceus TS using the method Freeze-thaw
[2] = test system: Aspergillus ochraceus; assay: Compound was tested for transformation of progesterone by immobilized spores of Aspergillus orchraceus TS
[3] = test system: Aspergillus ochraceus; assay: Compound was tested for transformation of progesterone by Dehydrated immobilized spores of Aspergillus orchraceus TS using the method Ethylacetate
[4] = test system: Aspergillus ochraceus; assay: Compound was tested for transformation of progesterone by Dehydrated immobilized spores of Aspergillus orchraceus TS using the method n-Butylacetate
[5] = test system: Aspergillus ochraceus; assay: Compound was tested for transformation of progesterone by Dehydrated immobilized spores of Aspergillus orchraceus TS using the method Amylacetate

Compound | Activity [1] | Activity [2] | Activity [3] | Activity [4] | Activity [5]
CC(=O)C1CCC2C3CCC4=CC(=O)CCC4(C)C3[C@@H](O)CC12C (stereo partly specified) | 14 uM (g of spores)-1 | 27.2 uM (g of spores)-1 | – | – | –
CC(=O)OC1CCC2C3CCC4=CC(=O)CCC4(C)C3CCC12C (stereo unspecified) | 5 uM (g of spores)-1 | – | – | – | –
CC(=O)C1CCC2C3CCC4=CC(=O)C=CC4(C)C3CCC12C (stereo unspecified) | 7.6 uM (g of spores)-1 | – | 23.6 uM (g of spores)-1 | 13.8 uM (g of spores)-1 | 16.1 uM (g of spores)-1
C[C@]12CCC(=O)C=C1CC[C@@H]1[C@@H]2CC[C@]2(C)C(=O)CC[C@@H]12 [ANDROSTENEDIONE] | 14.7 uM (g of spores)-1 | – | 58.7 uM (g of spores)-1 | 40.4 uM (g of spores)-1 | 42.6 uM (g of spores)-1
C[C@]12C=CC(=O)C=C1CC[C@@H]1[C@@H]2CC[C@]2(C)C(=O)CC[C@@H]12 [ANDROSTENEDONE] | 14.4 uM (g of spores)-1 | – | 22.2 uM (g of spores)-1 | 15.8 uM (g of spores)-1 | 16.1 uM (g of spores)-1
CC(=O)[C@@]1(O)CC[C@H]2[C@@H]3CCC4=CC(=O)CC[C@]4(C)[C@H]3CC[C@@]21C [HYDROXYPROGESTERONE] | – | – | 20.8 uM (g of spores)-1 | 12.2 uM (g of spores)-1 | 13.8 uM (g of spores)-1
C[C@]12CCC(=O)C[C@@H]1CC[C@@H]1[C@@H]2CC[C@]2(C)[C@@H](O)CC[C@@H]12 [STANOLONE] | 5.8 uM (g of spores)-1 | – | 4.2 uM (g of spores)-1 | 2.7 uM (g of spores)-1 | 2.9 uM (g of spores)-1
C[C@]12CC[C@H]3[C@@H](CCC4=CC(=O)CC[C@@]43C)[C@@H]1CC[C@@H]2O [TESTOSTERONE] | 5.5 uM (g of spores)-1 | – | 3.9 uM (g of spores)-1 | 2.6 uM (g of spores)-1 | 2.7 uM (g of spores)-1
